Data set [1] can be described thus: Hypotensive action (change of blood pressure) in anesthetized dogs. In kind it is in vivo, dog of mixed breed. Conditions: intravenous, 1 (mm/Kg [sic]). The method, then:
(§1) The effect on the vasodilatation of the femoral and vertebral arteries was measured by anesthetizing a dog of mixed breed weighing 8 to 15 Kg by an intravenous administration of 35 mg/Kg of pentbarbital, providing an acute type probe (a product of Nippon Koden K.K., Japan) with the femoral and vertebral arteries, administering to the femoral vein through a polyethylene tube inserted into the femoral vein side chain, measuring the blood flow volume with an electromagnetic blood flowmeter (a product of Nippon Koden K.K., Japan, "MFV-1200") and measuring the change of blood pressure.

The subject of a further data set is femoral artery. Description: Effect on blood flow volume in femoral artery of anesthetized dogs. Conditions: intravenous, 1 mg/Kg (mm/Kg [sic]). In kind it is in vivo, dog of mixed breed. The method, then: (§2) The effect of the isoquinolinesulfonamide derivatives and the pharmaceutically acceptable acid addition salts of this invention on the vasodilatation of the femoral and vertebral arteries can be measured by anesthetizing a dog of mixed breed weighing 8 to 15 Kg by an intravenous administration of 35 mg/Kg of pentbarbital, providing an acute type probe (a product of Nippon Koden K.K., Japan) with the femoral and vertebral arteries, administering the isoquinolinesulfonamide derivatives and the pharmaceutically acceptable acid addition salts to the femoral vein through a polyethylene tube inserted into the femoral vein side chain and measuring the blood flow volume with an electromagnetic flowmeter (a product of Nippon Koden K.K., Japan, "MFV-1200"). 1 mg/Kg of N-(2-guanidinoethyl)-5-isoquinolinesulfonamide, i.e., Compound (2) was intravenously administered, the increased blood flow volumes in the vertebral artery and in the femoral artery were 95% and 37%. And the duration time is more than 30 minutes.
as §1

For data set [2], the system named is femoral and vertebral arteries. Description: Duration time of effect in anesthetized dogs (blood flow volume / blood pressure). The data set is classed as in vivo, dog of mixed breed. Conditions: intravenous. The method, then:
as §2, §1

Another data set has as its system vertebral artery. Description: Effect on blood flow volume in vertebral artery of anesthetized dogs. In kind it is in vivo, dog of mixed breed. Conditions: intravenous, 1 mg/Kg (mm/Kg [sic]). The method, then: as §2, §1
In the next data set the test system is mesenteric artery. Description: Relaxation of rabbit mesenteric artery contracted with KCl (isolated helical strip). The data set is classed as cell-based. Conditions: Oryctolagus cuniculus; concentration for 50% relaxation (complete relaxation = 100%); KCl 15-20 mM contraction; read-out: Relaxation of Mesenteric Artery ED50. The method, then:
When, for example, N-(2-guanidinoethyl)-5-isoquinolinesulfonamide, i.e., compound (2) was added and a complete relaxation was designated 100%, the concentration which could bring about a relaxation of 50%, i.e., ED50 was 1 μM.
After a home bred rabbit of a Japanese species weighing about 3 Kg was subjected to bloodletting, resulting in death and then to abdominal incision, the mesenteric artery was taken out, cut into helicoids of 2 mm×25 mm and suspended in a 20 ml organ bath filled with a Krebs-Henseleit solution into which a mixed gas of 95% by volume of O2 and 5% by volume of CO2 was introduced and one end of the artery was connected with an isometric transducer. When a load of 1.5 g was applied to the artery, the contraction and the relaxation of the artery were recorded as a weight on the transducer (a product of Nippon Koden K.K., Japan, "FD Pickup TB-912T"). The relaxation of the mesenteric artery was observed by adding the isoquinolinesulfonamide derivatives and their pharmaceutically acceptable acid addition salts of this invention to the mesenteric artery at the condition of about one half of the maximum contraction with KCl concentration of 15-20 mM. When the complete relaxation of the mesenteric artery was designated 100%, the concentration of the isoquinolinesulfonamide derivatives and their pharmaceutically acceptable acid addition salts which brought about a relaxation of 50% is shown in Table 26.

A further data set can be described thus: Acute toxicity in mice. Conditions: mouse, in vivo; intravenous administration, male ddY-strain mice; hydrochloric acid salt. The method, then: The acute toxicity of the N-(2-guanidinoethyl)-5-isoquinolinesulfonamide dihydrochloride was measured by giving male ddY-strain mouse and rat an intravenous administration and an oral administration.
The acute toxicity of the hydrochloric acid salt of other compounds was measured by giving male ddY-strain mice an intravenous administration.

Take `N=C(N)NCCNS(=O)(=O)c1cccc2cnccc12` [Compound 2, N-(2-Guanidinoethyl)-5-isoquinolinesulfonamide]: in data set [1], the “Average Decreased Blood Pressure” value stood at 32 mmHg. Besides, the “Increased Blood Flow Volume in Femoral Artery” value in the data set on femoral artery is 37%. The “Duration Time” value in data set [2] (1 mg/Kg (table prints mm/Kg), 1 mg/kg) was greater than 30 min; in data set [2] (1 mg/Kg (table prints mm/Kg), listed as Compound (2), 1 mg/kg) it was “more than 30 Min”. Also, the “Increased Blood Flow Volume in Vertebral Artery” value with vertebral artery came to 95%. In the data set with mesenteric artery, the EC50 amounted to 1 µM.
Regarding `N=C(N)NCCCNS(=O)(=O)c1cccc2cnccc12` [Compound 3, N-(3-Guanidinopropyl)-5-isoquinolinesulfonamide], the EC50 in the data set on mesenteric artery was 2 µM.
On the same count and under the same terms, next, `N=C(N)NCCCCNS(=O)(=O)c1cccc2cnccc12` [Compound 4, N-(4-Guanidinobutyl)-5-isoquinolinesulfonamide]: 2 µM.
Turning to `N=C(N)NCCCCCNS(=O)(=O)c1cccc2cnccc12` [Compound 5, N-(5-Guanidinopentyl)-5-isoquinolinesulfonamide], the EC50 in the data set with mesenteric artery is 3 µM.
Still for that read-out and setting: next, `N=C(N)NCCCCCCNS(=O)(=O)c1cccc2cnccc12` [Compound 6, N-(6-Guanidinohexyl)-5-isoquinolinesulfonamide]: 4 µM; `N=C(N)NCCCCCCCCNS(=O)(=O)c1cccc2cnccc12` [Compound 7, N-(8-Guanidinooctyl)-5-isoquinolinesulfonamide]: 10 µM; `N=C(N)NCCCCCCCCCCNS(=O)(=O)c1cccc2cnccc12` [Compound 8, N-(10-Guanidinodecyl)-5-isoquinolinesulfonamide]: 15 µM.
Same read-out and setting: next, `CC(CNC(=N)N)NS(=O)(=O)c1cccc2cnccc12` (centres unmarked) [Compound 9, N-[(2-Guanidino-1-methyl)ethyl]-5-isoquinolinesulfonamide]: 3 µM; `CCC(CNC(=N)N)NS(=O)(=O)c1cccc2cnccc12` (centres unmarked) [Compound 10, N-[(1-Guanidinomethyl)propyl]-5-isoquinolinesulfonamide]: 5 µM.
`CCCCC(CNC(=N)N)NS(=O)(=O)c1cccc2cnccc12` (centres unmarked) [Compound 13, N-[(1-Guanidinomethyl)pentyl]-5-isoquinolinesulfonamide]: the EC50 in the data set with mesenteric artery worked out at 13 µM.
Regarding `CC(CNS(=O)(=O)c1cccc2cnccc12)NC(=N)N` (centres unmarked) [Compound 16, N-(2-Guanidinopropyl)-5-isoquinolinesulfonamide], the EC50 in the data set on mesenteric artery is 3 µM.
For the compound `CCC(CNS(=O)(=O)c1cccc2cnccc12)NC(=N)N` (centres unmarked) [Compound 17, N-(2-Guanidinobutyl)-5-isoquinolinesulfonamide], the EC50 in the data set with mesenteric artery is 10 µM.
Still for that read-out and setting: as for `CC(C)C(CNS(=O)(=O)c1cccc2cnccc12)NC(=N)N` (centres unmarked) [Compound 19, N-(2-Guanidino-3-methylbutyl)-5-isoquinolinesulfonamide], the figure is 15 µM.
With `N=C(N)NCC(NS(=O)(=O)c1cccc2cnccc12)c1ccccc1` (centres unmarked) [Compound 23, N-(2-Guanidino-1-phenylethyl)-5-isoquinolinesulfonamide], the EC50 with mesenteric artery stood at 8 µM.
Regarding `N=C(N)NCC(Cc1ccccc1)NS(=O)(=O)c1cccc2cnccc12` (centres unmarked) [Compound 24, N-(2-Guanidino-1-benzylethyl)-5-isoquinolinesulfonamide], the EC50 in the data set on mesenteric artery is 10 µM.
On to `N=C(N)NC(CNS(=O)(=O)c1cccc2cnccc12)c1ccccc1` (centres unmarked) [Compound 25, N-(2-Guanidino-2-phenylethyl)-5-isoquinolinesulfonamide], for which the EC50 in the data set on mesenteric artery worked out at 10 µM.
On the same count and under the same terms, next, `CC(CNC(=N)N)CNS(=O)(=O)c1cccc2cnccc12` (centres unmarked) [Compound 28, N-(3-Guanidino-2-methylpropyl)-5-isoquinolinesulfonamide]: 3 µM.
Consider `N=C(N)NCC(CNS(=O)(=O)c1cccc2cnccc12)c1ccccc1` (centres unmarked) [Compound 31, N-(3-Guanidino-2-phenylpropyl)-5-isoquinolinesulfonamide], for which the “Average Decreased Blood Pressure” value in data set [1] is listed as 15 mmHg. In the data set on femoral artery, the “Increased Blood Flow Volume in Femoral Artery” value came to 30%. In “Acute toxicity in mice”, the LD50 (commonly the dose expected to kill half of the subjects tested) turned out to be 80 mg/kg. The “Duration Time” value in data set [2] (1 mg/Kg (mm/Kg [sic])) turned out to be 28 min. The “Increased Blood Flow Volume in Vertebral Artery” value with vertebral artery stood at 75%. The EC50 with mesenteric artery stood at 2 µM.
With `N=C(N)NCC(CNS(=O)(=O)c1cccc2cnccc12)Cc1ccccc1` (centres unmarked) [Compound 34, N-(3-Guanidino-2-benzylpropyl)-5-Isoquinolinesulfonamide], the EC50 with mesenteric artery turned out to be 2 µM.
On the same count and under the same terms, as for `N=C(N)NC(CCNS(=O)(=O)c1cccc2cnccc12)Cc1ccccc1` (centres unmarked) [Compound 35, N-(3-Guanidino-4-phenylbutyl)-5-isoquinolinesulfonamide], the figure is 5 µM; as for `CC(CCNS(=O)(=O)c1cccc2cnccc12)CNC(=N)N` (centres unmarked) [Compound 36, N-(4-Guanidino-3-methylbutyl)-5-isoquinolinesulfonamide], 5 µM.
`N=C(N)NCC(CCNS(=O)(=O)c1cccc2cnccc12)c1ccccc1` (centres unmarked) [Compound 37, N-(4-Guanidino-3-phenylbutyl)-5-isoquinolinesulfonamide]: the EC50 in the data set on mesenteric artery came to 10 µM.
The same measure, in the same setting: next, `N=C(N)NCC(CCCNS(=O)(=O)c1cccc2cnccc12)Cc1ccccc1` (centres unmarked) [Compound 38, N-(5-Guanidino-4-benzylpentyl)-5-isoquinolinesulfonamide]: 11 µM; `N=C(N)NCCCC(CNS(=O)(=O)c1cccc2cnccc12)Cc1ccccc1` (centres unmarked) [Compound 39, N-(5-Guanidino-2-benzylpentyl)-5-isoquinolinesulfonamide]: 13 µM.
Consider `CC(NC(=N)N)C(C)NS(=O)(=O)c1cccc2cnccc12` (centres unmarked) [Compound 41, N-(2-Guanidino-1-methylpropyl)-5-isoquinolinesulfonamide], for which the EC50 with mesenteric artery stood at 8 µM.
Same read-out and setting: as for `N=C(N)N1CCCN(S(=O)(=O)c2cccc3cnccc23)CC1` [Compound 45, 4-Amidino-1-(5-isoquinolinesulfonyl)homopiperazine], the figure is 2 µM.
Consider `CC1CN(S(=O)(=O)c2cccc3cnccc23)C(C)CN1C(=N)N` (centres unmarked) [Compound 49, 4-Amidino-2,5-dimethyl-1-(5-isoquinolinesulfonyl)piperazine], for which the EC50 with mesenteric artery was determined as 1 µM.
On to `O=S(=O)(NCCNC1=NCCN1)c1cccc2cnccc12` [Compound 50, 2-[2-(5-Isoquinolinesulfonamido)ethylaminol]-2-imidazoline], for which, in data set [1], the “Average Decreased Blood Pressure” value came to 10 mmHg. The “Increased Blood Flow Volume in Femoral Artery” value in the data set on femoral artery is given as 19%. In addition, the “Duration Time” value in data set [2] (1 mg/Kg (mm/Kg [sic])) came out at 21 min. Also, in the data set with vertebral artery, the “Increased Blood Flow Volume in Vertebral Artery” value stood at 65%. Also, in the data set with mesenteric artery, the EC50 was 20 µM.
In the case of `O=S(=O)(NCCNC1=NCCCN1)c1cccc2cnccc12` [Compound 51, 2-[2-(5-Isoquinolinesulfonamido)ethylamino]-1,4,5,6-tetrahydropyrimidine], the EC50 in the data set with mesenteric artery turned out to be 25 µM.
Turning to `CNC(=N)NCCNS(=O)(=O)c1cccc2cnccc12` [Compound 52, N-[2-(3-Methylguanidino)ethyl]-5-isoquinolinesulfonamide], the EC50 with mesenteric artery worked out at 7 µM.
For `CN=C(NC)NCCNS(=O)(=O)c1cccc2cnccc12` [Compound 53, N-[2-(2,3-Dimethylguanidino)ethyl]-5-isoquinolinesulfonamide], in the data set on mesenteric artery, the EC50 was determined as 10 µM.
The same measure, in the same setting: as for `CCN=C(NCC)NCCNS(=O)(=O)c1cccc2cnccc12` [Compound 54, N-[2-(2,3-Diethylguanidino)ethyl]-5-isoquinolinesulfonamide], the figure is 12 µM; as for `CCN=C(N)NCCNS(=O)(=O)c1cccc2cnccc12` [Compound 55, N-[2,(3-Ethylguanidino)ethyl]-5-isoquinolinesulfonamide], 5 µM.

Values taken from patent publication US4709032A, “Isoquinolinesulfonamide derivatives” (Asahi Kasei Kogyo Kabushiki Kaisha, priority 1982, dated 1987).
